Measurements reported in ChEMBL document CHEMBL5370542, “Current advances of small molecule E3 ligands for proteolysis-targeting chimeras design” (Eur J Med Chem, 2023).
Values belong to the compound of their own block, whether it stands above or below them.

What was measured:
[1] = target: von Hippel-Lindau disease tumor suppressor/Mitogen-activated protein kinase 14 (Homo sapiens) (UniProt Q16539+P40337); experiment: PROTAC activity at VHL/N-terminal His-tagged human p38alpha expressed in Escherichia coli BL21-CodonPlus (DE3)-RIPL cells assessed as maximal degradation relative to control
[2] = target: Protein cereblon/Mitogen-activated protein kinase 13 (Homo sapiens) (UniProt O15264+Q96SW2); experiment: PROTAC activity at CRBN/N-terminal His-tagged human p38delta expressed in Escherichia coli BL21-CodonPlus (DE3)-RIPL cells assessed as maximal degradation degradation relative to control
[3] = target: von Hippel-Lindau disease tumor suppressor (Homo sapiens, UniProt P40337); experiment: Binding affinity to VHL (unknown origin) assessed as inhibition constant
[4] = target: Bromodomain-containing protein 4 (Homo sapiens, UniProt O60885); experiment: Induction of HiBit-tagged BRD4 degradation in human A549 cells incubated for 4 to 24 hrs by luminescence based Nano-Glo assay; format: cell-based
[5] = target: T1, von Hippel-Lindau disease tumor suppressor/GTPase KRas (Homo sapiens, UniProt P01116+P40337, G12C); experiment: PROTAC activity at VHL/KRAS G12C mutant in human MIA PaCa-2 cells assessed as induction of KRAS G12C degradation by Immunoblot analysis; format: cell-based
[6] = target: T1, von Hippel-Lindau disease tumor suppressor/GTPase KRas; experiment: PROTAC activity at VHL/KRAS G12C mutant in human NCI- H2030 cells assessed as induction of KRAS G12C degradation by Immunoblot analysis; format: cell-based
[7] = target: T1, von Hippel-Lindau disease tumor suppressor/GTPase KRas; experiment: PROTAC activity at VHL/KRAS G12C mutant in human NCI-H23 cells assessed as induction of KRAS G12C degradation by Immunoblot analysis; format: cell-based
[8] = target: T1, von Hippel-Lindau disease tumor suppressor/GTPase KRas; experiment: PROTAC activity at VHL/KRAS G12C mutant in human SW1573 cells assessed as induction of KRAS G12C degradation by Immunoblot analysis; format: cell-based
[9] = target: T1, von Hippel-Lindau disease tumor suppressor/GTPase KRas; experiment: PROTAC activity at VHL/KRAS G12C mutant in human NCI-H358 cells assessed as induction of KRAS G12C degradation by Immunoblot analysis; format: cell-based
MV4-11 = experiment: Antiproliferative activity against human MV4-11 cells assessed as inhibition of cell growth incubated for 3 days by CellTiter-Glo assay; format: functional, cell-based; conditions: MV4-11, 72 h

T1 sequence (P01116 whole entry G12C, stated change not applied): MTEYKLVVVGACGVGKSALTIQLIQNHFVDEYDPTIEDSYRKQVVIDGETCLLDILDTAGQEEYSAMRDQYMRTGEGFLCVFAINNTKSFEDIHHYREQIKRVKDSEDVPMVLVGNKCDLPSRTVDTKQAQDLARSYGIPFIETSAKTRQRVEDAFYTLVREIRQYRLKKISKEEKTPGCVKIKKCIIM
T1 sequence (P40337 whole entry, stated change not applied): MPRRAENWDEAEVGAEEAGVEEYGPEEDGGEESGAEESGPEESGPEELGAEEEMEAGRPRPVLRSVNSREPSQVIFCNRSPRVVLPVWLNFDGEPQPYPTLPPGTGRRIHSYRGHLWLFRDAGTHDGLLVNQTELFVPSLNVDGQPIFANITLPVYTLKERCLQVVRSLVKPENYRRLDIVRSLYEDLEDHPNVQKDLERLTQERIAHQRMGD
Protein cereblon/Mitogen-activated protein kinase 13 (Homo sapiens), sequence (O15264 whole entry, looked up): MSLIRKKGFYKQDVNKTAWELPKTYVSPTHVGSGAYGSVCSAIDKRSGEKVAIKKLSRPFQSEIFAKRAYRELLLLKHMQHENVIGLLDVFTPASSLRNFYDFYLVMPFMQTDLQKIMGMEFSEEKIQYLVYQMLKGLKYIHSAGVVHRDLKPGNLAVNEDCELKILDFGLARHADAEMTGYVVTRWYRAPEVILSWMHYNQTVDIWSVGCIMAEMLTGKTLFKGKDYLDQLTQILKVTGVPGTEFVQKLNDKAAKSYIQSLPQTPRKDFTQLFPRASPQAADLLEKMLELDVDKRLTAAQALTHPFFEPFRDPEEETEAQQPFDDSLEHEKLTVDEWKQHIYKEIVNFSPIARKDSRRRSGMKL
Protein cereblon/Mitogen-activated protein kinase 13 (Homo sapiens), sequence (Q96SW2 whole entry, looked up): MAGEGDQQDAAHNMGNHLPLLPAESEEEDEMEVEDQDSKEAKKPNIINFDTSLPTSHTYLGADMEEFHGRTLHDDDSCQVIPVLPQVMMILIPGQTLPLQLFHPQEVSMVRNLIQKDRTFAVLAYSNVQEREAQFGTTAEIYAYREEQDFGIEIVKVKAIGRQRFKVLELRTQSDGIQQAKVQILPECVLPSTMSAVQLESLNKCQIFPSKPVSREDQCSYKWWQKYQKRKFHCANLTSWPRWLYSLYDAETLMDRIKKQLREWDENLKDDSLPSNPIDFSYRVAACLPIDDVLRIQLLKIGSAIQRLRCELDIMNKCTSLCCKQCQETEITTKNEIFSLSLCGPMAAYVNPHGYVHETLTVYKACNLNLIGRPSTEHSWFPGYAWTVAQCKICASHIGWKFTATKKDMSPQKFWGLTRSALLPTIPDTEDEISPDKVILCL
von Hippel-Lindau disease tumor suppressor, sequence (P40337 whole entry): as the sequence (P40337 whole entry, stated change not applied) above
von Hippel-Lindau disease tumor suppressor/Mitogen-activated protein kinase 14 (Homo sapiens), sequence (P40337 whole entry partner): as the sequence (P40337 whole entry, stated change not applied) above
von Hippel-Lindau disease tumor suppressor/Mitogen-activated protein kinase 14 (Homo sapiens), sequence (Q16539 2-360 limits assumed): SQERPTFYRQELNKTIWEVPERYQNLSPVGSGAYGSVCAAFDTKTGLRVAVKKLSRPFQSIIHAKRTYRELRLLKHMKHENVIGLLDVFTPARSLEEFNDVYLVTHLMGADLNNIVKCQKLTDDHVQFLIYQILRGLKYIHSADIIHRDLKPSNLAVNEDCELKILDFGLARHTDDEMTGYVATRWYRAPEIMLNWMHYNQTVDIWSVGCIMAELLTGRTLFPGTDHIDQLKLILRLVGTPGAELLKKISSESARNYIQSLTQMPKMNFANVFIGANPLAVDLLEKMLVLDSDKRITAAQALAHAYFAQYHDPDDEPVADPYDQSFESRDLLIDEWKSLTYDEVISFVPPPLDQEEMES

- Emax [1]: 91%
- Emax [2]: 91%
SMILES: COc1cc2c(Oc3ccc(NC(=O)C4(C(=O)Nc5ccc(F)cc5)CC4)cc3F)ccnc2cc1OCCCN1CCOCC1

- Ki [3]: 670 nM
SMILES: Cc1ncsc1-c1ccc(CNC(=O)[C@@H]2C[C@@H](O)CN2C(=O)c2cccc(N)c2C)cc1

- EC50 [4]: < 50 nM
SMILES: Cc1cc([C@@H](C(=O)N2C[C@@H](O)C[C@@H]2C(=O)N[C@H](C)c2ccc(-c3scnc3C#CCOCCOCCOCCNC(=O)C[C@@H]3N=C(c4ccc(Cl)cc4)c4c(sc(C)c4C)-n4c(C)nnc43)cc2)C(C)C)on1

SMILES: C=C(F)C(=O)N1CCN(c2nc(OC[C@@H]3CCCN3CCCOCCC(=O)N[C@H](C(=O)N3C[C@H](O)C[C@H]3C(=O)NCc3ccc(-c4scnc4C)cc3)C(C)(C)C)nc3c2CCN(c2cccc4cccc(Cl)c24)C3)C[C@@H]1CC#N
- EC50 [5]: 250 nM
- EC50 [6]: 250 nM
- EC50 [7]: 250 nM
- EC50 [8]: 250 nM
- EC50 [9]: 250 nM

- IC50 (MV4-11): 6.1 nM
SMILES: Cc1sc2c(c1C)C(c1ccc(Cl)cc1)=N[C@@H](CC(=O)NCCCCNC(=O)COc1cccc3c1C(=O)N(C1CCC(=O)NC1=O)C3=O)c1nnc(C)n1-2 (stereo not given in full)
